By TGI is commonly meant the concentration at which net growth stops. Higher therefore signals lower sensitivity of the cells. Broadly, the GI50 is the concentration giving 50% growth inhibition.

Some test systems named below: OVCAR-4 ovarian; DMS 273 small cell lung; UO-31 renal; COLO 205 colon; K-562 leukemia; OVCAR-5 ovarian; HOP-18 NSCLC; SNB-75 CNS; DU-145 prostate; MDA-MB-435.
Holding throughout (experiment): DTP human tumour cell line panel, 48 h

“And” between values parts separate entries of the source, which are not always exact repeats. Identical values can stand only once.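 Compound exposure: 48 hours, 5 concentrations, 96-well plates. GI50: concentration for 50% inhibition of growth. Definition used: TGI = concentration required for complete inhibition of growth.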

On to `O=C(CCCC(=O)Nc1ccc(Cl)cc1Cl)CC(=O)c1ccc2ccccc2c1`, for which the TGI in the experiment with OVCAR-4 ovarian, in the experiment on DMS 273 small cell lung, with UO-31 renal, in the experiment with COLO 205 colon, in the experiment on K-562 leukemia and in the experiment with OVCAR-5 ovarian was > 100 µM each time. In addition, in the experiment with HOP-18 NSCLC, the total growth inhibition concentration (TGI) is > 100 µM.

Consider `CCCCCCCCOCC(COC(=O)CCCCCCC)OC(=O)CCCCCCC` (stereo unspecified), for which the TGI in the experiment with OVCAR-4 ovarian, in the experiment with DMS 273 small cell lung, in the experiment with UO-31 renal, with COLO 205 colon, in the experiment on K-562 leukemia and in the experiment on OVCAR-5 ovarian was > 100 µM in each case. Also, the TGI in the experiment with HOP-18 NSCLC is > 100 µM.

As for `Cc1ccccc1C(CCCO)C(=O)O` (stereo unspecified), the total growth inhibition concentration (TGI) in the experiment on OVCAR-4 ovarian, in the experiment on DMS 273 small cell lung, with UO-31 renal, in the experiment with COLO 205 colon, with K-562 leukemia and with OVCAR-5 ovarian was > 100 µM each time. Besides, the TGI with SNB-75 CNS was > 100 µM.

Regarding `CC(C)Cc1ccc(C(C)/C=C2\CCC(CN(C)C)C2=O)cc1` (stereo unspecified), the total growth inhibition concentration (TGI) was determined as 35.2 µM with OVCAR-4 ovarian; 23.4 µM in the experiment on UO-31 renal; 23.6 µM in the experiment with DU-145 prostate; 32.1 µM in the experiment with COLO 205 colon; 8.04 µM with K-562 leukemia; 19.6 µM with MDA-MB-435. Further, the TGI in the experiment with OVCAR-5 ovarian was 43.1 µM; in the experiment with HOP-18 NSCLC, 32.2 µM; in the experiment with SNB-75 CNS, 30.8 µM.

With `COc1cc(/C=C/c2csnn2)cc(OC)c1OC`, the concentration for total growth inhibition (TGI) in the experiment with OVCAR-4 ovarian, in the experiment with UO-31 renal, with K-562 leukemia, with OVCAR-5 ovarian and in the experiment with HOP-18 NSCLC was > 100 µM throughout.

As for `Nc1nccc(-c2c(-c3ccc(F)cc3)nn3cc(C(F)(F)F)ccc23)n1`, the GI50 in the experiment with OVCAR-4 ovarian, in the experiment on UO-31 renal, in the experiment with DU-145 prostate, in the experiment on COLO 205 colon, with K-562 leukemia and in the experiment on MDA-MB-435 was > 25 µM each time. Moreover, the results for the GI50 in the experiment on OVCAR-5 ovarian and in the experiment on SNB-75 CNS were > 25 µM and > 19.7 µM, respectively. Also, the total growth inhibition concentration (TGI) in the experiment on OVCAR-4 ovarian, in the experiment on UO-31 renal, in the experiment on DU-145 prostate, in the experiment with COLO 205 colon, with K-562 leukemia and in the experiment on MDA-MB-435 was > 25 µM throughout. For the same compound, the TGI in the experiment on OVCAR-5 ovarian and in the experiment on SNB-75 CNS was > 25 µM throughout.

For `OC(c1ccccc1Br)(c1ccccc1Br)C(F)(F)F`, the total growth inhibition concentration (TGI) in the experiment on OVCAR-4 ovarian was > 100 µM; in the experiment on DMS 273 small cell lung, 40.7 µM; in the experiment with UO-31 renal it was 75.1 µM; in the experiment on COLO 205 colon, 33.1 µM; with OVCAR-5 ovarian, 70 µM; with HOP-18 NSCLC, > 100 µM. In the experiment on SNB-75 CNS, this compound yielded a TGI of 85.2 µM.

In the case of `O=C1N[C@@H]2CCCC[C@@H]2C12CCCCC2`, the TGI in the experiment with OVCAR-4 ovarian, with UO-31 renal, in the experiment on K-562 leukemia, with OVCAR-5 ovarian, in the experiment with HOP-18 NSCLC and in the experiment with SNB-75 CNS was > 100 µM throughout.

Regarding `CN(C)c1ccc(-c2cc(-c3ccc(Nc4nc(Nc5ccc(Cl)cc5)nc(Nc5ccc(Cl)cc5)n4)cc3)nc(N)c2C#N)cc1`, the GI50 with OVCAR-4 ovarian is 9.86 µM; with UO-31 renal, 47.6 µM; in the experiment on DU-145 prostate, 34.6 µM; with COLO 205 colon, 7.88 µM; in the experiment on K-562 leukemia, 5.2 µM; with MDA-MB-435, 27.9 µM. Moreover, the GI50 is > 100 µM in the experiment with OVCAR-5 ovarian and 3.05 µM in the experiment with SNB-75 CNS. Further, the TGI with OVCAR-4 ovarian, in the experiment with UO-31 renal, in the experiment with DU-145 prostate, in the experiment with COLO 205 colon, with K-562 leukemia and with MDA-MB-435 was > 100 µM in each case. For the same compound, the TGI in the experiment with OVCAR-5 ovarian and in the experiment with SNB-75 CNS was > 100 µM each time.

As for `COc1ccc(/C=C2\CCC/C(=C\c3ccc(OC)c(OC)c3)C2=O)cc1OC`, the GI50 was 3.28 µM with OVCAR-4 ovarian; 3.63 µM with UO-31 renal; 1.28 µM with DU-145 prostate; 1.46 µM in the experiment on COLO 205 colon; 2.28 µM in the experiment with K-562 leukemia; 1.1 µM in the experiment with MDA-MB-435. The GI50 was 25 µM with OVCAR-5 ovarian and 1.29 µM with SNB-75 CNS. Also, the total growth inhibition concentration (TGI) in the experiment on OVCAR-4 ovarian was > 32.5 µM; in the experiment on UO-31 renal, > 32.5 µM; in the experiment with DU-145 prostate it was 9.89 µM; in the experiment with COLO 205 colon it was > 32.5 µM; with K-562 leukemia, > 32.5 µM; with MDA-MB-435 it was > 32.5 µM. Further, the concentration for total growth inhibition (TGI) in the experiment with OVCAR-5 ovarian was > 32.5 µM; in the experiment with SNB-75 CNS, 12.8 µM.

Consider `CCOC(=O)C1(C)CCC(C(C(=O)O)C(=O)O)CC1=O` (stereo unspecified), for which the TGI in the experiment on OVCAR-4 ovarian, in the experiment on DMS 273 small cell lung, with UO-31 renal, in the experiment on COLO 205 colon, with OVCAR-5 ovarian and with HOP-18 NSCLC was > 100 µM throughout. The TGI in the experiment on SNB-75 CNS was > 100 µM.

For `COc1ccc2ccccc2c1C1=NC(C)(C)CO1`, the TGI in the experiment with OVCAR-4 ovarian, with UO-31 renal, in the experiment on COLO 205 colon, with K-562 leukemia, with HOP-18 NSCLC and in the experiment on SNB-75 CNS was > 100 µM in each case.

For the compound `CC[C@H](C)[C@H](NC(=O)[C@H]1CCCCN1C)C(=O)N(C)[C@H](C[C@@H](OC(C)=O)c1nc(C(=O)NC23CC(C(=O)OC)(C2)C3)cs1)C(C)C`, the GI50 was 0.0424 µM and 0.0727 µM with OVCAR-4 ovarian; 0.0109 µM and 0.00564 µM in the experiment with UO-31 renal; 0.000449 µM and 0.00325 µM in the experiment on DU-145 prostate; 0.00152 µM and 0.00325 µM in the experiment with COLO 205 colon; 0.000137 µM and < 0.00325 µM with MDA-MB-435; 0.000382 µM and 0.00325 µM in the experiment with SNB-75 CNS. Also, the concentration for total growth inhibition (TGI) was > 32.5 µM in the experiment with OVCAR-4 ovarian; > 32.5 µM in the experiment with UO-31 renal; > 32.5 µM with DU-145 prostate; 0.0299 µM and 0.0339 µM in the experiment with COLO 205 colon; > 32.5 µM in the experiment on K-562 leukemia; 0.00104 µM and < 0.00325 µM in the experiment on MDA-MB-435. The TGI with OVCAR-5 ovarian and in the experiment on SNB-75 CNS was > 32.5 µM in each case.

With `CCCCCCCCCCCC[C@@H](O)[C@H]1CC[C@H]([C@H](O)CC[C@H](O)[C@@H]2CC[C@@H](CCCCCCCC3=C[C@H](C)OC3=O)O2)O1`, the total growth inhibition concentration (TGI) in the experiment with OVCAR-4 ovarian, in the experiment on UO-31 renal, with DU-145 prostate, with COLO 205 colon, in the experiment on K-562 leukemia and in the experiment with MDA-MB-435 was > 50 µM in each case. Also, the total growth inhibition concentration (TGI) with OVCAR-5 ovarian and in the experiment on SNB-75 CNS was > 50 µM in each case. The GI50 in the experiment on UO-31 renal was 2.51 µM; in the experiment on DU-145 prostate, > 50 µM; in the experiment on COLO 205 colon it was 8.16 µM; in the experiment with K-562 leukemia, 3 µM; in the experiment with MDA-MB-435, 1.49 µM.

Source of the values: PubChem BioAssay (NCI).
